Among the data in patent US5478828A, “Piperazinyl-and piperidinyl-cyclohexanols” (Bristol-Myers Squibb Company, priority 1995, dated 1995) are IC50 values, retold here.

Assay [1] addresses T1, D2 receptor (Bos taurus, UniProt P20288).
T1 construct: from tissue
Description: In vitro receptor binding, D2.
Description: In vitro IC50 test values for binding to the D2 receptor were determined for representative compounds of Formula I by the method of Burt, Creese, and Snyder, Molecular Pharmacology 12, 800 (1976); Creese, Burt, and Snyder, Science 196, 326 (1977); and Creese, Burt and Snyder, Science.

The target of assay [2] is 5-HT1A receptor. In words: In vitro receptor binding, 5-HT1A. Here is the method: In vitro IC50 test values for binding to the 5-HT1A receptor were determined for representative compounds of Formula I by the method of S. J. Peroutka, Brain Research 344, 167 (1985); with only minor modifications. Test IC50 values lower than 100 nM are considered to reflect activity at the 5-HT1A receptor.

Setting [3] is: in vitro, read-out: D2 receptor binding IC50.

Structures are written as SMILES. Structures can show the parent of a compound that is named as a salt. Where two headings read alike, the source gives them in different places.

T1 sequence (P20288 whole entry): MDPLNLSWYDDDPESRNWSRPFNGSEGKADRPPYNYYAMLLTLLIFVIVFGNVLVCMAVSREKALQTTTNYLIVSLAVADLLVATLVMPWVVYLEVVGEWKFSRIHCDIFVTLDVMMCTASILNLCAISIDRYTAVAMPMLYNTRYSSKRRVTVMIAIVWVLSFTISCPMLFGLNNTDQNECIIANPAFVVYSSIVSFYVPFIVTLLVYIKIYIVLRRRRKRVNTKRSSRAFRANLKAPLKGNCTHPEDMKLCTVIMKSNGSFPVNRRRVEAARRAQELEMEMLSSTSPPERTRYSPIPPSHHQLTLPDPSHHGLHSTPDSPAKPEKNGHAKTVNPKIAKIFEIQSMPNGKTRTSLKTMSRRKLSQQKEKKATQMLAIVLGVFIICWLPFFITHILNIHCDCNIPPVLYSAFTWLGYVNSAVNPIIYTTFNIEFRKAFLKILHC

Consider `O[C@]1(c2ccc3c(c2)OCO3)CC[C@H](N2CCC(Cc3ccccc3)CC2)CC1` [Example 15, Z-1-(1,3-Benzodioxol-5-yl)-4-[4-(phenylmethyl)-1-piperidinyl]cyclohexanol], for which the IC50 (in general, the midpoint of a concentration-inhibition curve) is > 1000 nM in assay [1] (setting [3]) and 5.4 nM in assay [2].

Regarding `COc1ccc([C@]2(O)CC[C@@H](N3CCC(Cc4ccccc4)CC3)CC2)cc1` [Example 16, Z-1-(4-Methoxyphenyl)-4-[4-(phenylmethyl)-1-piperidinyl]cyclohexanol], the results for the IC50 in assay [1] (setting [3]) and in assay [2] were 2710 nM and 15.6 nM, respectively.

Turning to `O[C@]1(c2ccc3c(c2)OCO3)CC[C@H](N2CCN(Cc3ccccc3)CC2)CC1` [Example 17, Z-1-(1,3-Benzodioxol-5-yl)-4-[4-(phenylmethyl)-1-piperazinyl]cyclohexanol], the half-inhibitory concentration (IC50) in assay [1] (setting [3]) was 1710 nM; in assay [2], 20 nM.

Regarding `COc1ccc([C@]2(O)CC[C@@H](N3CCN(Cc4ccccc4)CC3)CC2)cc1` [Example 18, Z-1-(4-Methoxyphenyl):4-[4-(phenylmethyl)-1-piperazinyl]cyclohexane], the IC50 in assay [1] (setting [3]) came to 1830 nM; in assay [2], 46.5 nM.

Turning to `CO[C@]1(c2ccc3c(c2)OCO3)CC[C@H](N2CCN(Cc3ccccc3)CC2)CC1` [Example 19, Z-1-[4-(1,3,-Benzodioxol-5-yl)-4-methoxycyclohexyl]-4-(phenylmethyl)piperazine], the half-maximal inhibitory concentration (IC50) in assay [1] (setting [3]) amounted to 1350 nM; in assay [2] it was 14 nM.

`O[C@]1(c2ccc3c(c2)OCCO3)CC[C@@H](N2CCN(Cc3ccccc3)CC2)CC1` [Example 20-E, E-1-(1,4-Benzodioxan-6-yl)-4-[4-(phenylmethyl)-1-piperazinyl]cyclohexanol]: in assay [2], the IC50 amounted to 5.3 nM.

With `O[C@]1(c2ccc3c(c2)OCCO3)CC[C@H](N2CCN(Cc3ccccc3)CC2)CC1` [Example 20-Z, Z-1-(1,4-Benzodioxan-6-yl)-4-[4-(phenylmethyl)-1-piperazinyl]cyclohexanol], the values for the IC50 in assay [1] (setting [3]) and in assay [2] were 15200 nM and 9.9 nM, respectively.

With `COc1cccc(CN2CCN([C@H]3CC[C@](O)(c4ccc5c(c4)OCO5)CC3)CC2)c1` [Example 21, Z-1-(1,3,-Benzodioxol-5-yl)-4-[4-[(3-methoxyphenyl)methyl]-1-piperazinyl]-cyclohexanol], the values for the IC50 in assay [1] (setting [3]) and in assay [2] were 1040 nM and 2.15 nM, respectively.

Compound `O[C@]1(c2ccc3c(c2)OCO3)CC[C@H](N2CCN(Cc3cccc(F)c3)CC2)CC1` [Example 22, Z-1-(1,3-Benzodioxol-5-yl)-4-[4-[(3-fluorophenyl)methyl]-1-piperazinyl]cyclohexanol] registered a concentration for half-maximal inhibition (IC50) in assay [2] of 13.4 nM.

Consider `O[C@]1(c2ccc3c(c2)OCO3)CC[C@H](N2CCN(Cc3ccccc3F)CC2)CC1` [Example 23, Z-1-(1,3-Benzodioxol-5-yl)-4-[4,[(2-fluorophenyl)methyl]-1-piperazinyl]cyclohexanol], for which the 50% inhibitory concentration (IC50) came to 1540 nM in assay [1] and 10.1 nM in assay [2].

Regarding `Cc1ccccc1CN1CCN([C@H]2CC[C@](O)(c3ccc4c(c3)OCO4)CC2)CC1` [Example 24, Z-1-(1,3-Benzodioxol-5-yl)-4-[4-[(2-methylphenyl)methyl]-1-piperazinyl]cyclohexanol], the results for the IC50 in assay [1] (setting [3]) and in assay [2] were 2550 nM and 4.2 nM, respectively.

`O[C@]1(c2ccc3c(c2)OCO3)CC[C@H](N2CCN(Cc3cccs3)CC2)CC1` [Example 26, Z-1-(1,3-Benzodioxol-5-yl)-4-[4-(2-thienylmethyl)-1-piperazinyl]cyclohexano]: the 50% inhibitory concentration (IC50) in assay [2] turned out to be 19.1 nM.

The compound `O[C@]1(c2ccc3c(c2)OCO3)CC[C@H](N2CCN(Cc3ccccc3Cl)CC2)CC1` [Example 27, Z-1-(1,3-Benzodioxol-5-yl)-4-[4-[(2-chlorophenyl)methyl]-1-piperazinyl]cyclohexanol] registered an IC50 in assay [2] of 1.85 nM.

For `O[C@]1(c2ccc3c(c2)OCO3)CC[C@H](N2CCN(Cc3cc(Cl)ccc3Cl)CC2)CC1` [Example 28, Z-1-(1,3-Benzodioxol-5-yl)-4-[4-[(2,5-dichlorophenyl)methyl]-1-piperazinyl]-cyclohexanol], the half-inhibitory concentration (IC50) in assay [2] came out at 0.6 nM.

Turning to `O[C@]1(c2ccc3c(c2)OCO3)CC[C@H](N2CCN(Cc3cc(F)ccc3F)CC2)CC1` [Example 29, Z-1-(1,3-Benzodioxol-5-yl)-4-[4-[(2,5-difluorophenyl)methyl]-1-piperazinyl]-cyclohexanol], the concentration for half-maximal inhibition (IC50) in assay [2] is 2.6 nM.

In assay [2], `O[C@]1(c2ccc3c(c2)OCO3)CC[C@H](N2CCN(Cc3cccc(F)c3F)CC2)CC1` [Example 30, Z-1-(1,3-Benzodioxol-5-yl)-4-[4,[(2,3-difluorophenyl)methyl]-1-piperazinyl]-cyclohexanol] gave an IC50 of 17.3 nM.

In the case of `O[C@]1(c2ccc3c(c2)OCO3)CC[C@H](N2CCN(Cc3cc(F)cc(F)c3)CC2)CC1` [Example 31, Z-1-(1,3-Benzodioxol-5-yl)-4-[4-[(3,5-difluorophenyl)methyl]-1-piperazinyl]-cyclohexanol], in assay [2], the half-maximal inhibitory concentration (IC50) worked out at 21.1 nM.

With `O[C@]1(c2ccc3c(c2)OCO3)CC[C@H](N2CCN(Cc3ccccc3I)CC2)CC1` [Example 32, Z-1-(1,3-Benzodioxol-5-yl)-4-[4-[(2-iodophenyl)methyl]-1-piperazinyl]cyclohexanol], the IC50 in assay [2] worked out at 1.2 nM.

The compound `O[C@]1(c2ccc3c(c2)OCO3)CC[C@H](N2CCN(Cc3cccc4c3OCO4)CC2)CC1` [Example 33, Z-1-(1,3-Benzodioxol-5-yl)-4-[4-[(1,3-benzodioxo-4-yl)methyl]-1-piperazinyl]-cyclohexanol] had an IC50 in assay [2] of 34.9 nM.

In the case of `COc1cccc(CN2CCN([C@H]3CC[C@](O)(c4ccc(F)cc4)CC3)CC2)c1` [Example 34, Z-1-(4-Fluorophenyl)-4-[4-[(3-methoxyphenyl)methyl]-1-piperazinyl]cyclohexanol], the IC50 in assay [2] worked out at 10.6 nM.

The compound `O[C@]1(c2ccc(F)cc2)CC[C@H](N2CCN(Cc3ccccc3Cl)CC2)CC1` [Example 35, Z-1-(4-Fluorophenyl)-4-[4-[(2-chlorophenyl)methyl]-1-piperazinyl]cyclohexanol] registered an IC50 in assay [2] of 5.9 nM.

Take `O[C@]1(c2ccc(C(F)(F)F)cc2)CC[C@H](N2CCN(Cc3ccccc3Cl)CC2)CC1` [Example 37, Z-1-[(4-Trifluoromethyl)phenyl]-4-[4-[(2-chlorophenyl)methyl]-1-piperazinyl]-cyclohexanol]: the half-inhibitory concentration (IC50) in assay [2] was 25.8 nM.

With `COc1cccc(CN2CCN([C@H]3CC[C@](O)(c4ccc(C(F)(F)F)cc4)CC3)CC2)c1` [Example 38, Z-1-[(4-Trifluoromethyl)phenyl]-4-[4-[(3-methoxyphenyl)methyl]-1-piperazinyl]-cyclohexanol], the IC50 in assay [2] was 35.6 nM.

Compound `COc1ccc(F)c(CN2CCN([C@H]3CC[C@](O)(c4ccc5c(c4)OCO5)CC3)CC2)c1` [Example 39, Z-1-(1,3-Benzodioxol-5-yl)-4-[4-[(2-fluoro-5-methoxyphenyl)methyl]-1-piperazinyl]cyclohexanol] showed an IC50 in assay [2] of 0.75 nM.

In assay [2], `COc1ccc(F)c(CN2CCN([C@H]3CC[C@](O)(c4ccc(F)cc4)CC3)CC2)c1` [Example 40, Z-1-(4-Fluorophenyl)-4,-[4,-[(2-fluoro-5-methoxyphenyl)methyl]-1piperazinyl]cyclohexanol] gave a concentration for half-maximal inhibition (IC50) of 3.45 nM.

With `COc1cccc(CC2CCN([C@H]3CC[C@](O)(c4ccc5c(c4)OCCO5)CC3)CC2)c1` [Example 41, Z-1-(1,4-Benzodioxan-6-yl)-4-[4-[(3-methoxyphenyl)methyl]-1-piperidinyl]cyclohexanol], the 50% inhibitory concentration (IC50) in assay [2] is 2.2 nM.

As to `COc1cccc(CC2CCN([C@H]3CC[C@](O)(c4ccc5c(c4)OCO5)CC3)CC2)c1` [Example 42, Z-1-(1,3-Benzodioxol-5-yl)-4-[4-[(3-methoxyphenyl)methyl]-1-piperidinyl]cyclohexanol], the half-inhibitory concentration (IC50) in assay [2] was found to be 4.4 nM.

`O[C@]1(c2ccc3c(c2)OCO3)CC[C@H](N2CCC(Cc3cc(F)ccc3F)CC2)CC1` [Example 43, Z-1-(1,3-Benzodioxol-5-yl)-4-[4-[(2,5-difluorophenyl)methyl]-1-piperidinyl]cyclohexanol] had an IC50 in assay [2] of 4.9 nM.

In assay [2], `COc1cccc(CC2CCN([C@H]3CC[C@](OC)(c4ccc5c(c4)OCCO5)CC3)CC2)c1` [Example 45, Z-1-[4-(1,4-Benzodioxan-6-yl)-4-methoxy-1-cyclohexyl]-4-[3-(methoxyphenyl)methyl]-piperidine fumarate] registered an IC50 of 3.4 nM.

Consider `CO[C@]1(c2ccc3c(c2)OCO3)CC[C@H](N2CCC(Cc3cc(F)ccc3F)CC2)CC1` [Example 46, Z-1-[4-(1,3-Benzodioxol-5-yl)-4-methoxy-1-cyclohexyl]-4-[(2,5,-difluorophenyl)-methyl]piperidine fumarate], for which the IC50 in assay [2] amounted to 16.2 nM.

`O[C@]1(c2ccc(F)cc2)CC[C@H](N2CCC(Cc3ccccc3)CC2)CC1` [Example 47, Z-1-(4-Fluorophenyl)-4-[4-(phenylmethyl)-1-piperidinyl]cyclohexanol] registered a half-maximal inhibitory concentration (IC50) in assay [2] of 59.8 nM.

The compound `COc1cccc(CC2CCN([C@H]3CC[C@](O)(c4ccc(F)cc4)CC3)CC2)c1` [Example 48] yielded an IC50 in assay [2] of 31.9 nM.

In turn, `O[C@]1(c2ccc(F)cc2)CC[C@H](N2CCC(Cc3cc(F)ccc3F)CC2)CC1` [Example 49, Z-1-(4-Fluorophenyl)-4-[4-[(2,5-difluorophenyl)methyl]-1-piperidinyl]cyclohexanol] gave an IC50 in assay [2] of 57.6 nM.

Turning to `O[C@]1(c2ccc3c(c2)OCO3)CC[C@H](N2CCN(Cc3ccccc3Br)CC2)CC1` [Example 50, Z-1-(1,3-Benzodioxol-5-yl)-4-[4-[(2-bromophenyl)methyl]-1-piperazinyl]cyclohexanol], in assay [2], the IC50 came out at 1.2 nM.

Regarding `O[C@]1(c2ccc3c(c2)OCO3)CC[C@H](N2CCN(C(c3ccccc3)c3ccccc3)CC2)CC1` [Example 51, Z-1-(1,3-Benzodioxol-5-yl)-4-[4-(diphenylmethyl)-1-piperazinyl]cyclohexanol], in assay [2], the IC50 was determined as 28.6 nM.

`CC(c1ccccc1)N1CCN([C@H]2CC[C@](O)(c3ccc4c(c3)OCO4)CC2)CC1` (stereo partly drawn) [Example 52, Z-1-(1,3-Benzodioxol-5-yl)-4-[4-(1-phenylethyl)-1-piperazinyl]cyclohexanol] came in with a 50% inhibitory concentration (IC50) in assay [2] of 18.1 nM.
